Data on 1 substance can be found in US8680058B2, “Selectively targeted antimicrobial peptides and the use thereof” (priority 2006, dated 2014).

In one assay the test system is S. sanguinis biofilms. Description: Single-species biofilm regrowth after peptide exposure, S. sanguinis. In kind it is cell-based. The note with it: 25 μM peptide, 1 min exposure. How it is done:
(§1) 1.5 Examination of antimicrobial activity against single-species biofilms. To initiate biofilm formation, ˜1×10^7 bacteria per well (from overnight cultures) were seeded in TH medium (100 μL) to a 96-well flat-bottom plate. For all streptococci except S. mutans, the medium was supplemented with 0.5% (w/v) mannose and glucose. S. mutans UA159 biofilms were grown with 0.5% (w/v) sucrose. Plates were then centrifuged briefly to pellet the cells, and bacteria were incubated for 3-4 hours at 37° C. for biofilm formation. After incubation, the supernatant was carefully removed and biofilms were treated with 25 μM peptide in 1×PBS or 1×PBS alone for 1 min. The peptide solution was then removed and 100 μL TH was added to further dilute any remaining peptide. To minimize biofilm loss, cells were briefly centrifuged after TH addition, after which the supernatants were removed and fresh medium plus appropriate sugars were returned. Cells were then incubated anaerobically at 37° C. and biofilm growth was monitored over time by measuring absorbance at OD600 with a microplate spectrophotometer (Benchmark Plus, BioRad).

The next assay concerns S. mutans UA159. Description: Time-kill (bactericidal kinetics), planktonic S. mutans. In kind it is cell-based, Streptococcus mutans. The note with it: 25 μM, 1 min exposure. On the procedure: 1.4 Determination of bactericidal kinetics. To determine the short term killing rate and selectivity of C16G2 and G2 we performed time-kill experiments, essentially as described previously (Eckert et al., 2006). S. mutans UA159, S. gordonii, or S. sanguinis were grown to log phase and diluted to ˜1×10^5 cfu/mL in growth medium. Under aerobic conditions, 25 μM G2 or C16G2 was added to the cell suspension and incubated at 25° C. At 1 min, 10 μL of cell suspension was removed, rescued by dilution into growth medium (1:50) and kept on ice. For plating, 20-500 μL of rescued cells were spread on growth medium agar plates and colonies were counted after overnight incubation at 37° C. under anaerobic conditions. We considered 60 cfu/mL as the detection limit for this assay. Values of surviving cfu/mL were expressed as the ratio of survivors from C16G2-treated cultures to cfu/mL from samples exposed to G2.

In another assay the test system is S. gordonii. In kind it is cell-based, S. gordonii Challis (DL1). On the procedure: 1.3 Determination of antimicrobial activity. The general antimicrobial activity of peptides against planktonic bacteria was determined by a MIC assay in TH broth (all oral streptococci) (Qi et al., 2005).
S. mutans, S. gordonii Challis (DL1), and S. sanguinis NY101 strains were grown in Todd Hewitt (TH, Fisher) broth medium at 37° C. under anaerobic conditions (80% N2, 10% CO2, and 10% H2). S. mutans strains UA159 (Ajdic et al., 2002), ATCC 25175, and T8 (Rogers, 1975), are wild-type clinical isolates, while comD is a knockout mutant that was constructed previously from the wild-type UA140 background (Qi et al., 2005). Luciferase expressing S. mutans strain JM11 was constructed from UA140 as described (Merritt et al., 2005). Exponentially growing bacterial cells were diluted to ˜1×10^5 cfu/mL in TH and placed into 96-well plates (Fisher). Peptides were then serially diluted and added to the bacteria.

The test system of the next assay is S. gordonii biofilms. Briefly: Single-species biofilm regrowth after peptide exposure, S. gordonii. In kind it is cell-based. The note with it: 25 μM peptide, 1 min exposure. How it is done: as §1
The test system of assay [1] is S. mutans JM11 within a multi-species biofilm. Description: Multi-species biofilm in saliva, luciferase readout of S. mutans JM11. It counts as cell-based, Streptococcus mutans. Particulars: 25 μM in saliva, 5 min exposure. On the procedure:
1.6 Evaluation of antimicrobial activity against bacterial biofilm in saliva. For these experiments, we employed methods similar to those previously described (Bleher et al., 2003). A day prior to the assay, saliva was collected and pooled from 5 adult volunteers in the laboratory, diluted 1:4 in TH broth and centrifuged 2,000×g for 10 min. The supernatant was then filter sterilized (0.2 μm filter, Nunc) and stored at 4° C. A portion of pooled saliva was also diluted 1:2 in 1×PBS and processed as before. On the day of the assay, overnight cultures of JM11 and other oral streptococci were normalized to OD600 1.0 and ˜3×10^6 cfu/mL of each species was added to 10 mL of the TH-diluted saliva. […] At each time point, total biofilm growth was measured by reading absorbance at OD600, and the health of S. mutans within the population examined by relative luciferase expression (relative light unit, (RLU) production), as described previously (Merritt et al., 2005). […] RLU production was measured using a TD 20/20 luminometer (Turner Biosystems) and reported values were obtained from the average of 3 independent samples. […]
1.9 C16G2 can selectively eliminate S. mutans from a mixed species biofilm. […] The mixed-species biofilms were formed with saliva, and then peptides (25 μM) suspended in saliva were added for 5 min and removed, and the post-treatment growth of the biofilm was further monitored. […]

No end group written: not given here.

In general, MIC refers to the lowest concentration that inhibits growth of the organism.

For “TFFRLFNRSFTQALGKGGGKNLRIIRKGIHIIKKY-NH2 [Peptide C16G2]”, the “biofilm re-growth after treatment (OD600)” value in the assay with S. sanguinis biofilms is recorded as “grew similarly to untreated biofilms”. Moreover, the “activity in comparison to G2 (surviving cfu/mL)” value in the assay with S. mutans UA159 is “over 20 fold”. Also, the MIC against S. gordonii was found to be 23.5 ± 7.8 µM. The “difference in susceptibility between G2 and C16G2” value in the assay with S. gordonii (MIC, S. gordonii) is no more than 2 fold. Besides, the “biofilm re-growth after treatment (OD600)” value in the assay with S. gordonii biofilms was “grew similarly to untreated biofilms”. Moreover, in assay [1], the “S. mutans population within mixed-species biofilm (luciferase activity, RLU/OD600)” value was “dramatically reduce the S. mutans population” and the “duration of selective inhibition of S. mutans growth within multi-species biofilm” value is reported as no less than 2 h.
